Reference: patent US20260078120A1, “SUBSTITUTED PYRIDOPYRIMIDINONES” (MIRATI THERAPEUTICS, INC., priority 2022, published 2026)

Legend:
[1] = system: SKBR3 (PI3Kα wild type) cells; assay: CellTiter-Glo 2.0 luminescent cell viability assay, 72 hours, SKBR3 cells; type: cell-based; settings: Homo sapiens, SK-BR-3, 72 h, SKBR3 (PI3Kα wild type) cells, CellTiter-Glo, approximately 72 hours; read-out: SKBR3 (WT) Viability IC50
Outline: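 Viability measured via CTG luminescence following roughly 72 hours of compound exposure at 37° C. Dosing used a 10 um starting concentration diluted 1:4 over 10 points; percent-of-vehicle data fitted with a variable-slope four-parameter model for IC50.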

[2] = system: T47D (PI3Kα H1047R mutant) cells; assay: CellTiter-Glo 2.0 luminescent cell viability assay, 72 hours, T47D cells; type: cell-based; settings: Homo sapiens, T47D, 72 h, T47D (PI3Kα H1047R mutant) cells, CellTiter-Glo, approximately 72 hours; read-out: T47D (H1047R mutant) Viability IC50
Outline: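 Viability was measured by CellTiter-Glo 2.0 luminescence after approximately 72 h of compound exposure at 37° C. Plating was 1000 cells per well the day before dosing, with ten 1:4 dilutions from a 10 µM top concentration. Values as percent of vehicle were fitted by variable-slope log(inhibitor) regression to give IC50.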

Cc1cc([C@H](C)Nc2ccccc2C(=O)O)c2nc([C@H]3CCN(C)C(=O)C3)cc(=O)n2c1 [Example 11-374, 2-(((S)-1-(7-methyl-2-((S)-1-methyl-2-oxopiperidin-4-yl)-4-oxo-4H-pyrido[1,2-a]pyrimidin-9-yl)ethyl)amino)benzoic acid] was tested, and the IC50 [1] was greater than 10000 nM and the IC50 [2] was greater than 10000 nM.
In the case of Cc1cc(C(C)Nc2cccc(C(=O)O)c2)c2nc(N3CCCCC3)cc(=O)n2c1 (stereo not shown) [Example 11-389, 3-((1-(7-methyl-4-oxo-2-(piperidin-1-yl)-4H-pyrido[1,2-a]pyrimidin-9-yl)ethyl)amino)benzoic acid], the IC50 [1] is reported as greater than 10000 nM and the IC50 [2] is reported as greater than 10000 nM.
Compound Cc1cc(C(C)Nc2ccccc2C(=O)O)c2nc(N3CCCCC3)c(C(F)(F)F)c(=O)n2c1 (stereo not shown) [Example 11-415, 2-((1-(7-methyl-4-oxo-2-(piperidin-1-yl)-3-(trifluoromethyl)-4H-pyrido[1,2-a]pyrimidin-9-yl)ethyl)amino)benzoic acid] has an IC50 [1] of 890 nM and an IC50 [2] of 532 nM.
With Cc1cc([C@@H](C)Nc2ccccc2C(=O)O)c2nc(N3CCN(c4c(C)cccc4C)CC3)c(C)c(=O)n2c1 [Example 11-37, (R)-2-((1-(2-(4-(2,6-dimethylphenyl)piperazin-1-yl)-3,7-dimethyl-4-oxo-4H-pyrido[1,2-a]pyrimidin-9-yl)ethyl)amino)benzoic acid] the IC50 [1] was greater than 10000 nM and the IC50 [2] was 816 nM.
Cc1cc([C@@H](C)Nc2ccccc2C(=O)O)c2nc(N3CCC[C@@H](C(F)(F)F)C3)c(C#N)c(=O)n2c1 [Example 11-209, 2-(((R)-1-(3-cyano-7-methyl-4-oxo-2-((R)-3-(trifluoromethyl)piperidin-1-yl)-4H-pyrido[1,2-a]pyrimidin-9-yl)ethyl)amino)benzoic acid] was tested, and the IC50 [1] was greater than 10000 nM and the IC50 [2] was 439 nM.
With Cc1cc([C@@H](C)Nc2ccccc2C(=O)O)c2nc(N3CCC(C)(C#N)CC3)c(C)c(=O)n2c1 [Example 11-69, (R)-2-((1-(2-(4-cyano-4-methylpiperidin-1-yl)-3,7-dimethyl-4-oxo-4H-pyrido[1,2-a]pyrimidin-9-yl)ethyl)amino)benzoic acid] the IC50 [1] was greater than 10000 nM and the IC50 [2] was 168 nM.
Cc1cc([C@@H](C)Nc2ccccc2C(=O)O)c2nc(N3CC(F)(F)C4(CC4)C3)c(C)c(=O)n2c1 [Example 11-61, (R)-2-((1-(2-(7,7-difluoro-5-azaspiro[2.4]heptan-5-yl)-3,7-dimethyl-4-oxo-4H-pyrido[1,2-a]pyrimidin-9-yl)ethyl)amino)benzoic acid] gave an IC50 [1] greater than 10000 nM and an IC50 [2] of 145 nM.
Cc1cc([C@@H](C)Nc2ccccc2C(=O)O)c2nc(N3CCC(O)(C(C)C)C3)c(C)c(=O)n2c1 (stereo partly drawn) [Example 10-135, 2-(((1R)-1-(2-(3-hydroxy-3-isopropylpyrrolidin-1-yl)-3,7-dimethyl-4-oxo-4H-pyrido[1,2-a]pyrimidin-9-yl)ethyl)amino)benzoic acid] showed an IC50 [1] greater than 10000 nM and an IC50 [2] of 61 nM.
Cc1cc(C(C)Nc2ccccc2C(=O)O)c2nc(N3CCN(c4ccc(C#N)cc4)CC3)cc(=O)n2c1 (stereo not shown) [Example 11-334, 2-((1-(2-(4-(4-cyanophenyl)piperazin-1-yl)-7-methyl-4-oxo-4H-pyrido[1,2-a]pyrimidin-9-yl)ethyl)amino)benzoic acid] gave an IC50 [1] of 1270 nM and an IC50 [2] of 113 nM.
With Cc1cc([C@@H](C)Nc2ccnnc2C(=O)O)c2nc(N3CCC(F)(F)CC3)c(C#N)c(=O)n2c1 [Example 11-146, (R)-4-((1-(3-cyano-2-(4,4-difluoropiperidin-1-yl)-7-methyl-4-oxo-4H-pyrido[1,2-a]pyrimidin-9-yl)ethyl)amino)pyridazine-3-carboxylic acid] the IC50 [1] was greater than 10000 nM and the IC50 [2] was greater than 10000 nM.
CNS(=O)(=O)c1ccc(N2CCN(c3nc4c([C@@H](C)Nc5ccccc5C(=O)O)cc(C)cn4c(=O)c3C)CC2)cc1 [Example 10-129, (R)-2-((1-(3,7-dimethyl-2-(4-(4-(N-methylsulfamoyl)phenyl)piperazin-1-yl)-4-oxo-4H-pyrido[1,2-a]pyrimidin-9-yl)ethyl)amino)benzoic acid] showed an IC50 [1] greater than 10000 nM and an IC50 [2] of 46.7 nM.
